Measurements reported in patent US20060199803A1, “Compounds” (Kudos Pharmaceuticals Ltd, priority 2005, published 2006).

Biological target: T1, mTOR protein (Homo sapiens, UniProt P42345)
T1 construct: mTOR protein was isolated from HeLa cell cytoplasmic extract by immunoprecipitation; endogenous in cells; host or cells: HeLa cell cytoplasmic extract (immunoprecipitation)
Test: mTOR enzyme activity assay (immunoprecipitated mTOR, recombinant PHAS-1 as substrate)
Format: biochemical
Details: mTOR isolated from HeLa cell cytoplasmic extract by immunoprecipitation; recombinant PHAS-1 substrate

IC50, < 1500 nM:
C[C@H]1CCCCN1c1nc(N2CCCOCC2)c2cccnc2n1 [4ab]
C[C@@H]1CN(c2nc(N3CCOC[C@@H]3C)c3cccnc3n2)C[C@H](C)O1 [4af]
C[C@H]1COCCN1c1nc(N2CCOC(c3ccccc3)C2)nc2ncccc12 (stereo partly drawn) [4ag]
C[C@H]1COCCN1c1nc(N2CCOCC2c2ccccc2)nc2ncccc12 (stereo partly drawn) [4ah]
C[C@@H]1CN(c2nc(N3CCOCC3)c3cccnc3n2)C[C@H](C)O1 [4c]
NC(=O)C1CCN(c2nc(N3CCOCC3)c3ccncc3n2)CC1 [4d]
FC(F)(F)C1CCCN(c2nc(N3CCOCC3)c3cccnc3n2)C1 (stereo not drawn) [4h]
CCC1CCCCN1c1nc(N2CCOCC2)c2cccnc2n1 (stereo not drawn) [4n]
OCCC1CCCCN1c1nc(N2CCOCC2)c2cccnc2n1 (stereo not drawn) [4o]
c1cnc2nc(N3CCCCC3)nc(N3CCOCC3)c2c1 [4y]
C[C@H]1COCCN1c1nc(N2CCOC(CN3C(=O)c4cccc(N)c4C3=O)C2)nc2ncccc12 (stereo partly drawn) [5g]
C[C@H]1COCCN1c1nc(N2CCOC(Cn3c(=O)oc4ccccc43)C2)nc2ncccc12 (stereo partly drawn) [5h]
C[C@H]1COCCN1c1nc(N2CCOC(CNC(=O)c3cccs3)C2)nc2ncccc12 (stereo partly drawn) [5k]
COC(=O)C(=O)NCC1CN(c2nc(N3CCOC[C@@H]3C)c3cccnc3n2)CCO1 (stereo partly drawn) [5m]
C[C@H]1COCCN1c1nc(N2CCOC(COc3nccc4ccccc34)C2)nc2ncccc12 (stereo partly drawn) [5z]
